In US11466006B2, “Dual selective PI3 delta and gamma kinase inhibitors” (Rhizen Pharmaceuticals SA, priority 2013, dated 2022):
Read-outs that look alike come from different tables or passages of the source.

Key:
[1] = test system: Primary CLL cells; test: Anti-cancer activity in human CLL cells (MTS cytotoxicity); format: cell-based; conditions: CLL cell, 72 h, 3 days, read-out: median EC50, cytotoxicity in CLL cells
Procedure: Primary CLL cells were enriched using Rosette-Sep B cells from Stem Cell Technology, generally giving purity of >97% of B cells/CLL cells. Cells were seeded at 2.5×10^5 per well in a 96 well with either serum free medium (SFM) or SFM+10% heat-inactivated fetal bovine serum (volume 100 microliters) in the presence of desired concentrations of the test compound and cultured for 3 days at 37° C. in a carbon dioxide incubator. Cytotoxicity was determined using the MTS assay.

[2] = test system: pAKT; test: pAKT inhibition in human primary CTCL cells (flow cytometry); format: cell-based; conditions: cytokine mix stimulated, read-out: EC50, reduction of AKT phosphorylation
Procedure: Flow cytometry analysis of pAKT inhibition: Purified malignant T cells were isolated from donors and cultured overnight in RPMI/1% BSA. Cells were incubated with the test compound for 1.5 hr with a cytokine mix added for the final 30 minutes. The composition of the cytokine mix was 20 ng/ml IL2+5 ng/ml IL7+10 ng/ml IL15+10% FBS. AKT phosphorylation was determined by flow cytometry.

[3] = test system: Lewis rats; test: Collagen induced arthritis in Lewis rats; format: in vivo, rat
[4] = molecular target: Pi3K γ (Homo sapiens, UniProt P48736); test: fMLP induced CD63 expression in basophils from human whole blood; format: cell-based; conditions: n=10, read-out: IC50 for fMLP (PI3K γ), CD63 positive basophils
Procedure: PI3K δ and γ signalling in basophils manifested by an alteration of anti-FcεR1 or fMLP induced CD63 expression is a useful pharmacodynamic marker determined using the Flow2CAST® kit (Buhlmann Laboratories, Switzerland). Briefly, it involves the following steps: • Mix the anti-coagulated blood sample by inverting the venipuncture tube several times; • Prepare fresh and pyrogen-free 3.5 ml polypropylene or polystyrene tubes suitable for Flow Cytometry measurements; • Add 49 μl of patient's whole blood to each tube; • Add 1 μl of 10% DMSO (background) or compound (10% DMSO) to the assigned tubes and mix gently. Incubate at room temperature for 15 minutes; • Pipet 50 μl of the Stimulation buffer (background) or anti-FcεRI Ab or or fMLP to each tube; • Add 100 μl of Stimulation Buffer to each tube; • Mix gently. Add 20 μl Staining Reagent (1:1 mix of FITC-CD63 and PE-CCR3) to each tube; • Mix gently, cover the tubes and incubate for 15 minutes at 37° C. in a water bath. […]
Percent CD63 positive cells within the gated basophil population were determined in different treatment groups and normalized to vehicle control.

[5] = molecular target: T1, Pi3K α (Homo sapiens, UniProt P42336); test: Fluorescent (HTRF) determination of PI3 kinase enzyme activity, alpha isoform; format: biochemical; conditions: Table 1, HTRF
T1 construct: purchased Millipore (assay kit)
From the text: Phosphoinositide 3 kinases (PI3K) belong to a class of lipid kinases that play a critical role in the regulation of several key cellular processes. The PI3K are capable of phosphorylating the 3-hydroxy position of phosphoinositols thereby generating second messengers involved in downstream signalling events. The homogenous time resolved fluorescence (HTRF) assay allows detection of 3,4,5-triphosphate (PIP3) formed as a result of phosphorylation of phosphotidylinositol 4,5-biphosphate (PIP2) by PI3K isoforms such as α, β, γ or δ.
PI3K isoform activity for α, β, γ or δ was determined using a PI3K human HTRF™ Assay Kit (Millipore, Billerica, Mass.) with modifications. All incubations were carried out at room temperature. Briefly, 0.5 μl of 40× inhibitor (in 100% DMSO) or 100% DMSO were added to each well of a 384-well white plate (Greiner Bio-One, Monroe, N.C.) containing 14.5 μl 1× reaction buffer /PIP2 (10 mM MgCl2, 5 mM DTT, 1.38 μM PIP2) mix with or without enzyme, followed by 5 μl/well of 400 μM ATP and incubated for an additional 30 minutes. Reaction was terminated by adding 5 μl/well stop solution (Millipore, Billerica, Mass.). […] HRTF ratio was measured on a microplate reader (BMG Labtech., Germany) at an excitation wavelength of 337 nm and emission wavelengths of 665 and 615 nm with an integration time of 400 msec counting delay of 50 msec.

[6] = test system: Female Wistar rats; test: Lipopolysaccharide induced pulmonary neutrophilia in female Wistar rat model; format: in vivo; conditions: Neutrophil, oral gavage, 1 h before intratracheal LPS, BAL at 6 h, read-out: ED50, reduction of neutrophil infiltration into the lungs
Procedure: After the quarantine period, fasted animals were randomized and divided into various groups depending on their body weights. The test compound [Compound A1] was prepared as a suspension in a vehicle consisting of 0.5% methylcellulose in which Tween 80 as a suspending agent. The compound or vehicle was administered by oral gavage in a volume of 10 mL/kg. Female Wistar rats were anaesthetized with ketamine and LPS solution was administered intratracheally one hour after compound administration at a dose of 1 mg/kg. 6 h after LPS instillation, animals were exsanguinated under anaesthesia, and then trachea was cannulated and the lungs were lavaged with 5-ml aliquots of heparinised PBS (1 unit/ml) four times through tracheal cannula (total volume 20 ml). Bronchoalveolar lavage (BAL) fluid was been stored at 2-8° C. until assayed for total cell and differential leukocyte count. Bronchioalveolar fluid was centrifuged (500×g for 10 min) and the resulting cell pellet was resuspended in 0.5 ml of heparinised saline. The total numbers of white blood cells were determined in BAL fluid or blood by using a blood cell counter and was adjusted to 1×10^6 cell/ml. Differential cell count was calculated manually. […] The number of each cell type among 300 white blood cells in the cell smear was determined and expressed as a percentage. The number of eosinophil in each BALf or blood was calculated.

[7] = molecular target: T2, PI3K beta (Mus musculus, UniProt Q8BTI9); test: LPA induced AktS473 phosphorylation in 3T3 fibroblasts (PI3Kβ selectivity); format: cell-based; conditions: read-out: Cellular IC50 PI3K beta (LPA induced pAKT in 3T3 fibroblasts)
T2 construct: 3T3 cells were treated with desired concentrations of the test compound for 15 min; endogenous in cells; host or cells: 3T3 fibroblasts
T2 sequence (Q8BTI9 whole entry): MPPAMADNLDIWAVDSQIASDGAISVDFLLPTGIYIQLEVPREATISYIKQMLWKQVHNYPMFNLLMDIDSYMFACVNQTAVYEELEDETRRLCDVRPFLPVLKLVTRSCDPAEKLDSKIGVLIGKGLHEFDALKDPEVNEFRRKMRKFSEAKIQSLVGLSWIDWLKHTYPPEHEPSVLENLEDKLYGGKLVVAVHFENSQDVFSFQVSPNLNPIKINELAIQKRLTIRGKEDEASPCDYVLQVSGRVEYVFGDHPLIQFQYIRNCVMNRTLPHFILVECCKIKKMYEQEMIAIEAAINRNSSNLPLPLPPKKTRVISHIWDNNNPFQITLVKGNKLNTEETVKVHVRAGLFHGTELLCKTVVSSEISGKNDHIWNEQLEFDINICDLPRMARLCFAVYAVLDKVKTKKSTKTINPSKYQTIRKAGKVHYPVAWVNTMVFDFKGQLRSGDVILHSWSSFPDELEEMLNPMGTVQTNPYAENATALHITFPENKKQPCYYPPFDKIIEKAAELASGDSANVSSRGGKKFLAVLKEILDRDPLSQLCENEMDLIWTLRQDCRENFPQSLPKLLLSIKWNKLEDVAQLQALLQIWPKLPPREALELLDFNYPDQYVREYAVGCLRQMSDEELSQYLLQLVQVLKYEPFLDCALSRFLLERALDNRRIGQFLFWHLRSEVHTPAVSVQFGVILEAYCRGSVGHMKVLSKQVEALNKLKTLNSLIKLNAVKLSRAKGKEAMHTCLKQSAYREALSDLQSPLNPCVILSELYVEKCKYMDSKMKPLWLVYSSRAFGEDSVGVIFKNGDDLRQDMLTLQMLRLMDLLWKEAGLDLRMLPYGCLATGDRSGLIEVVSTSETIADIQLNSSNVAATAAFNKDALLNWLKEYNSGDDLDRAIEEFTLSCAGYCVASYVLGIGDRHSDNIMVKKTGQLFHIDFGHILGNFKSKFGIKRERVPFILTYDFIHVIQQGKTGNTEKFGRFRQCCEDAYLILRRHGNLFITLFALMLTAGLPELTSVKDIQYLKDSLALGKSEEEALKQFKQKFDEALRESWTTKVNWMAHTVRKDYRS
T2 sequence (P26450 whole entry partner): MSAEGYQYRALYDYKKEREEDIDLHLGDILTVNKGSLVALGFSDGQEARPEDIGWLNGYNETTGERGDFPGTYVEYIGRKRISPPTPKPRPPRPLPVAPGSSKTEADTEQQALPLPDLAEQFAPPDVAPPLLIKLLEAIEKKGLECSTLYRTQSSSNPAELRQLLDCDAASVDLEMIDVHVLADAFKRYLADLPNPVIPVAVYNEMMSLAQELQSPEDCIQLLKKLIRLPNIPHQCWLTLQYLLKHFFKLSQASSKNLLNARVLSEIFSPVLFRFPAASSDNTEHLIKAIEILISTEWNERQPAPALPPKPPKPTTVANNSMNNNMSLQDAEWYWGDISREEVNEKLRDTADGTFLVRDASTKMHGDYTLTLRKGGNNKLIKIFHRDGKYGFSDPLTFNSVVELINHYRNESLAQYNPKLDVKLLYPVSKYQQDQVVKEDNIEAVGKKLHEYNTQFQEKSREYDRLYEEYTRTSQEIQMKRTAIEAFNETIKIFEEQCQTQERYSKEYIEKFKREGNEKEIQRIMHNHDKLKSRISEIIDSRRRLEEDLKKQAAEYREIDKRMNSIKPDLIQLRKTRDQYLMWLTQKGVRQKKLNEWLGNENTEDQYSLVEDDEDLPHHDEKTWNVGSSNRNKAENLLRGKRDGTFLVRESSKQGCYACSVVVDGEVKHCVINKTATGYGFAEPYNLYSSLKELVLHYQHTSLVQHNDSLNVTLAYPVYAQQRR

Sequence of Pi3K γ (P48736 whole entry): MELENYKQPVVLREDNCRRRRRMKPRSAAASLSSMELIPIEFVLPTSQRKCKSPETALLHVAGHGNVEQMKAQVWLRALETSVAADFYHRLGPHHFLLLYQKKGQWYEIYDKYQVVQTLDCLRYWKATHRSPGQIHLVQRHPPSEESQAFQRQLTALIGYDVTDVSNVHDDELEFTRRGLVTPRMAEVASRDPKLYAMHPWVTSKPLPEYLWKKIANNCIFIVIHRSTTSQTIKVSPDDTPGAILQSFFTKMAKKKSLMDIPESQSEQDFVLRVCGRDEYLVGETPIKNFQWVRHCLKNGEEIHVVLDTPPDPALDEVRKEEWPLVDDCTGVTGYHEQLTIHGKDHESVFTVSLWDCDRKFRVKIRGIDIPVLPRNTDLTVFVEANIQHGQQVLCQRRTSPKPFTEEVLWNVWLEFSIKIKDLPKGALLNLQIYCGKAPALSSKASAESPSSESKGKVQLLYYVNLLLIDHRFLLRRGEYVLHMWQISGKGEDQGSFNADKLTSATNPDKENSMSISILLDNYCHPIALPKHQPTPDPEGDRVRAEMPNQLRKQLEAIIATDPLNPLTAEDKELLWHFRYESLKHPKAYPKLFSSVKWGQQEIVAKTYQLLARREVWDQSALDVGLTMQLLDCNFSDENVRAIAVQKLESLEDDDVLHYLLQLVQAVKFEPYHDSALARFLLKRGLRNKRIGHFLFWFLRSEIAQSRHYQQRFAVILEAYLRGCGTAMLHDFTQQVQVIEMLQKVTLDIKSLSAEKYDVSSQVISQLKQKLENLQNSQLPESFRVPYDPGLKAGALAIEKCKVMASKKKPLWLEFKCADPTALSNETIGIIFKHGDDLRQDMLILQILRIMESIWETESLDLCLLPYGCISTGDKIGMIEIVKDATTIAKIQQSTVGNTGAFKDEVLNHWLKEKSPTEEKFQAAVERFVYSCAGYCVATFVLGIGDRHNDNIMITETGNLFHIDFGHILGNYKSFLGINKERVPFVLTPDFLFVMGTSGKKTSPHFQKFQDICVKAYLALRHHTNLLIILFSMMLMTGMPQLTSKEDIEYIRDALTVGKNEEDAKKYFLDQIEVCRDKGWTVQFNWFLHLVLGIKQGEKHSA
T1 sequence (P42336 whole entry, canonical isoform): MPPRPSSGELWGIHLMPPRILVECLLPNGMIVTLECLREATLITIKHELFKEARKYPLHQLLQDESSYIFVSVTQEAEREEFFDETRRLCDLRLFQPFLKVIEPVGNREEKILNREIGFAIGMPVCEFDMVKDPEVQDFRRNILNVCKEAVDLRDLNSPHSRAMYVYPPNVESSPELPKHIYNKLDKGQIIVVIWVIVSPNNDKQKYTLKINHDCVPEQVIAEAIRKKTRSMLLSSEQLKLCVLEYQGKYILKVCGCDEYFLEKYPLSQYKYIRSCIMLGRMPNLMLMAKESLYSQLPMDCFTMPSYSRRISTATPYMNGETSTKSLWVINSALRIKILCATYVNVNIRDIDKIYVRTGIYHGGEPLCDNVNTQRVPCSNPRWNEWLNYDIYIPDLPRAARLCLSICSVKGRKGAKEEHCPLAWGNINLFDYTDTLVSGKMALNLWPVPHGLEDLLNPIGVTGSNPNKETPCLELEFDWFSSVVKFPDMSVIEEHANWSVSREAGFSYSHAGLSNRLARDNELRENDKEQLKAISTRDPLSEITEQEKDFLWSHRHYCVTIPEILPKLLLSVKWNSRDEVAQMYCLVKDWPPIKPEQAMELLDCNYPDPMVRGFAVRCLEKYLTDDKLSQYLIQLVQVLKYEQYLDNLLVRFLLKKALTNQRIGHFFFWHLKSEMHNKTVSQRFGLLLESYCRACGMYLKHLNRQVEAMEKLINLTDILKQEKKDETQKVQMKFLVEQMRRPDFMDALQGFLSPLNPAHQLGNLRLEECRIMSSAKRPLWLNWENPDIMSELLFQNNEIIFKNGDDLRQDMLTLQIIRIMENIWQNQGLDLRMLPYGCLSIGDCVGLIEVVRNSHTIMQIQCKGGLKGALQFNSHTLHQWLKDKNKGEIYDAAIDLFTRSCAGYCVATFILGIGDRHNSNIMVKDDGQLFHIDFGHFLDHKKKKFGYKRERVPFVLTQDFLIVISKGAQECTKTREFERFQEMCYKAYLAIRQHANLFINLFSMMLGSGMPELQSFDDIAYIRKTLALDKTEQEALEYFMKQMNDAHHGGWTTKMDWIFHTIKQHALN
T1 sequence (P27986 whole entry partner, canonical isoform): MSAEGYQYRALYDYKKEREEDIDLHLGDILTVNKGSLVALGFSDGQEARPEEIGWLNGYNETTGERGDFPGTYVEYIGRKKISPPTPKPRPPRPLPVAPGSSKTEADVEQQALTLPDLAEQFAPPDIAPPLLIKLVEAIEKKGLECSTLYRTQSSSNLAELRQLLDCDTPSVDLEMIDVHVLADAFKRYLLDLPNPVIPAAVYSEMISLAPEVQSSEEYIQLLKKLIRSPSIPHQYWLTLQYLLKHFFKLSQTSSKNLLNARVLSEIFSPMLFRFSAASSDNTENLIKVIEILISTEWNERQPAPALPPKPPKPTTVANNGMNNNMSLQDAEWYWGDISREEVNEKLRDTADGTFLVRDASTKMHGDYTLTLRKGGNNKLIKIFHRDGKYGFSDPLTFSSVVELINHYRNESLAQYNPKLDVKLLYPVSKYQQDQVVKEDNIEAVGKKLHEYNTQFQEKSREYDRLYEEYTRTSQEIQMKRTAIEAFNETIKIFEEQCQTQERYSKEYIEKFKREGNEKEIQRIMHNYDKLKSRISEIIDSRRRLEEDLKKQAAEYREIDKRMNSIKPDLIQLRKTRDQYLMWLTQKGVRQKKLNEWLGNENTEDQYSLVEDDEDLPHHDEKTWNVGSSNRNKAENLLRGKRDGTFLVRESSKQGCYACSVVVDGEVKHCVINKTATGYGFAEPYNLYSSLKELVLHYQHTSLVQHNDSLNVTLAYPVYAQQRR

Compound: CC[C@H](Nc1ncnc2[nH]cnc12)c1oc2ccccc2c(=O)c1-c1cccc(F)c1 [Compound A1, (S)-2-(1-(9H-purin-6-ylamino)propyl)-3-(3-fluorophenyl)-4H-chromen-4-one]
- EC50 ([1]; 10% FBS media): < 700 nM
- EC50 ([1]; serum-free medium): < 100 nM
- EC50 [2]: 40 to 300 nM
- histological analysis of joints at study end ([3]; 15 mg/kg): complete structural preservation
- individual and summed histopathological scores for knee and ankle ([3]; 15 mg/kg/BID): significant reduction
- reduction of knee and ankle swelling ([3]; rat CIA model, dosed therapeutically, oral): significant efficacy
- IC50 [4]: < 40 nM
- IC50 [5]: > 10000 nM
- ED50 [6]: 6.5 mg/kg
- IC50 [7]: 2070 nM
